For 22 compounds, inhibition and IC50 results are on record in patent publication US11142526B2, “Spirocycle compounds and methods of making and using same” (H. Lundbeck A/S, priority 2017, dated 2021).

The target of experiment [1] is MAGL (Mus musculus (Mouse), UniProt O35678). Briefly: In vitro competitive activity-based protein profiling, mouse brain proteome. Format: biochemical. To be noted: for inhibition at 1 µM: mouse; for IC50: mouse brain.
In experiment [2] the target is MAGL (Homo sapiens (Human), UniProt Q99685). Briefly: In vitro competitive activity-based protein profiling (gel-based, FP-Rh or HT-01 probe). It is filed as biochemical. How it is done: In Vitro Competitive Activity-Based Protein Profiling.
MAGL (Homo sapiens (Human), UniProt Q99685), sequence (Q99685 whole entry): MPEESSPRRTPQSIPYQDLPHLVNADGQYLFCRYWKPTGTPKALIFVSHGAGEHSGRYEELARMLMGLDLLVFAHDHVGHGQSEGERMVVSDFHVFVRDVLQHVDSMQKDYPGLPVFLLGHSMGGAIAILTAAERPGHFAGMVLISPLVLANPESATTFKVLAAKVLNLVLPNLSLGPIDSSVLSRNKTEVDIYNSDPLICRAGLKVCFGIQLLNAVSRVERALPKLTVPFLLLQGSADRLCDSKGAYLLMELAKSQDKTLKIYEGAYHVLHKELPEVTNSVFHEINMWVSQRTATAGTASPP
Proteomes (human prefrontal cortex or cell membrane fractions) (50 μL, 1.0 mg/mL total protein concentration) were preincubated with varying concentrations of inhibitors at 37° C. After 30 min, FP-Rh or HT-01 (1.0 μL, 50 μM in DMSO) was added and the mixture was incubated for another 30 min at room temperature. Reactions were quenched with SDS loading buffer (15 μL—4×) and run on SDS-PAGE.

Setting [3] is: human PC3, read-out: MAGL % Inhibition at 1 μM (human PC3).
Setting [4] is: human PFC (prefrontal cortex), read-out: MAGL % Inhibition at 1 μM (human PFC).
Where [5] appears, read: human PC3, read-out: MAGL Human PC3 (IC50).
Setting [6] is: human PFC (prefrontal cortex), read-out: MAGL Human PFC (IC50).

Read-outs that look alike come from different tables or passages of the source.

MAGL (Mus musculus (Mouse), UniProt O35678), sequence (O35678 whole entry): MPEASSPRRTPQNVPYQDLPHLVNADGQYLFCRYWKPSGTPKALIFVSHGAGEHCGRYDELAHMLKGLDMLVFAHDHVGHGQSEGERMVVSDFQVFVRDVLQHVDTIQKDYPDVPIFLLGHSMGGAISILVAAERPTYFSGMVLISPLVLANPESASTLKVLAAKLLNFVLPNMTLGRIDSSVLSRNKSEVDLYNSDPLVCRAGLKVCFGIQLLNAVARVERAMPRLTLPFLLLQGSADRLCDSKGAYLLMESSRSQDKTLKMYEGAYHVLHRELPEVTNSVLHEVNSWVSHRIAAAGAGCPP

For the compound `O=C(OC(C(F)(F)F)C(F)(F)F)N1CCC2(CCCN2C(=O)c2c(C3CC3)nc3cccnn23)CC1` [Example 3, 1,1,1,3,3,3-Hexafluoropropan-2-yl 1-(2-cyclopropylimidazo[1,2-b]pyridazine-3-carbonyl)-1,8-diazaspiro[4.5]decane-8-carboxylate], the inhibition at 1 µM in experiment [1], in experiment [2] (setting [3]) and in experiment [2] (setting [4]) was > 75% throughout.

As for `O=C(OC(C(F)(F)F)C(F)(F)F)N1CCC2(CCCN2Cc2cnc(N3CCNCC3)s2)CC1` [Example 4, 1,1,1,3,3,3-hexafluoropropan-2-yl 1-((2-(piperazin-1-yl)thiazol-5-yl)methyl)-1,8-diazaspiro[4.5]decane-8-carboxylate], the inhibition at 1 µM in experiment [1] and in experiment [2] (setting [4]) was > 75% each time. Further, the IC50 in experiment [2] (setting [5]) was < 100 nM.

Take `O=C(OC(C(F)(F)F)C(F)(F)F)N1CCC2(CCCN2C(=O)c2ncccn2)CC1` [Example 12, 1,1,1,3,3,3-Hexafluoropropan-2-yl 1-(pyrimidine-2-carbonyl)-1,8-diazaspiro[4.5]decane-8-carboxylate]: the inhibition at 1 µM in experiment [1] and in experiment [2] (setting [4]) was < 25% in each case.

Regarding `Cc1ccc2sc(C(=O)N3CCCC34CCN(C(=O)OC(C(F)(F)F)C(F)(F)F)CC4)cc2c1` [Example 17, 1,1,1,3,3,3-Hexafluoropropan-2-yl 1-(5-methylbenzo[b]thiophene-2-carbonyl)-1,8-diazaspiro[4.5]decane-8-carboxylate], the inhibition at 1 µM in experiment [1] and in experiment [2] (setting [4]) was > 75% throughout. Moreover, the IC50 in experiment [2] (setting [6]) is < 100 nM.

Take `Cc1nn(C)c(C(=O)N2CCCC23CCN(C(=O)OC(C(F)(F)F)C(F)(F)F)CC3)c1C#N` [Example 19, 1,1,1,3,3,3-hexafluoropropan-2-yl 1-(4-cyano-1,3-dimethyl-1H-pyrazole-5-carbonyl)-1,8-diazaspiro[4.5]decane-8-carboxylate]: the inhibition at 1 µM in experiment [1] and in experiment [2] (setting [4]) was > 75% in each case.

Regarding `CC(C)N1CCn2cc(C(=O)N(C)C3(C)CCN(C(=O)OC(C(F)(F)F)C(F)(F)F)CC3)nc2C1` [Example 22, 1,1,1,3,3,3-Hexafluoropropan-2-yl 4-(7-isopropyl-N-methyl-5,6,7,8-tetrahydroimidazo[1,2-a]pyrazine-2-carboxamido)-4-methylpiperidine-1-carboxylate], the inhibition at 1 µM in experiment [1], in experiment [2] (setting [3]) and in experiment [2] (setting [4]) was > 75% each time. The IC50 in experiment [2] (setting [5]) is < 100 nM.

Turning to `CN(C(=O)c1cn2c(n1)CN(C1CCC1)CC2)C1(C)CCN(C(=O)OC(C(F)(F)F)C(F)(F)F)CC1` [Example 23, 1,1,1,3,3,3-Hexafluoropropan-2-yl 4-(7-cyclobutyl-N-methyl-5,6,7,8-tetrahydroimidazo[1,2-a]pyrazine-2-carboxamido)-4-methylpiperidine-1-carboxylate], the inhibition at 1 µM in experiment [1], in experiment [2] (setting [3]) and in experiment [2] (setting [4]) was > 75% throughout. Also, in experiment [2] (setting [5]), the 50% inhibitory concentration (IC50) is < 100 nM.

In the case of `[2H]C1(N2CCn3cc(C(=O)N(C)C4(C)CCN(C(=O)OC(C(F)(F)F)C(F)(F)F)CC4)nc3C2)CC1` [Example 25, 1,1,1,3,3,3-hexafluoropropan-2-yl 4-(7-(cyclopropyl-1-d)-N-methyl-5,6,7,8-tetrahydroimidazo[1,2-a]pyrazine-2-carboxamido)-4-methylpiperidine-1-carboxylate], the inhibition at 1 µM in experiment [1] and in experiment [2] (setting [3]) was > 75% in each case. Further, the half-maximal inhibitory concentration (IC50) in experiment [2] (setting [5]) is < 100 nM.

For the compound `CC(=O)N1CCn2cc(C(=O)N(C)C3(C)CCN(C(=O)OC(C(F)(F)F)C(F)(F)F)CC3)nc2C1` [Example 26, 1,1,1,3,3,3-Hexafluoropropan-2-yl 4-(7-acetyl-N-methyl-5,6,7,8-tetrahydroimidazo[1,2-a]pyrazine-2-carboxamido)-4-methylpiperidine-1-carboxylate], the inhibition at 1 µM in experiment [1] was 25 to 75%; in experiment [2] (setting [3]) it was > 75%; in experiment [2] (setting [4]), > 75%.

Take `CC1(NC(=O)c2cn3c(n2)CN(c2ncco2)CC3)CCN(C(=O)OC(C(F)(F)F)C(F)(F)F)CC1` [Example 28, 1,1,1,3,3,3-Hexafluoropropan-2-yl 4-methyl-4-(7-(oxazol-2-yl)-5,6,7,8-tetrahydroimidazo[1,2-a]pyrazine-2-carboxamido)piperidine-1-carboxylate]: the inhibition at 1 µM in experiment [1] and in experiment [2] (setting [3]) was > 75% in each case.

For the compound `CC1(NC(=O)c2cn3c(n2)CN(c2cnccn2)CC3)CCN(C(=O)OC(C(F)(F)F)C(F)(F)F)CC1` [Example 29, 1,1,1,3,3,3-Hexafluoropropan-2-yl 4-methyl-4-(7-(pyrazin-2-yl)-5,6,7,8-tetrahydroimidazo[1,2-a]pyrazine-2-carboxamido)piperidine-1-carboxylate], the inhibition at 1 µM in experiment [1] and in experiment [2] (setting [3]) was > 75% in each case.

With `Cc1cccnc1C1(C(=O)N2CCCC23CCN(C(=O)OC(C(F)(F)F)C(F)(F)F)CC3)CC1` [Example 30, 1,1,1,3,3,3-Hexafluoropropan-2-yl 1-(1-(3-methylpyridin-2-yl)cyclopropane-1-carbonyl)-1,8-diazaspiro[4.5]decane-8-carboxylate], the inhibition at 1 µM in experiment [1], in experiment [2] (setting [3]) and in experiment [2] (setting [4]) was > 75% each time.

`O=C(OC(C(F)(F)F)C(F)(F)F)N1CCC2(CCCN2C(=O)C2(c3ncc(C4CC4)cn3)CC2)CC1` [Example 33, 1,1,1,3,3,3-Hexafluoropropan-2-yl 1-(1-(5-cyclopropylpyrimidin-2-yl)cyclopropane-1-carbonyl)-1,8-diazaspiro[4.5]decane-8-carboxylate]: the inhibition at 1 µM in experiment [1] and in experiment [2] (setting [3]) was > 75% in each case. Moreover, the IC50 in experiment [2] (setting [6]) was < 100 nM.

As to `CC(C)N1CCn2c(nnc2C(=O)NC2(C)CCN(C(=O)OC(C(F)(F)F)C(F)(F)F)CC2)C1` [Example 36, 1,1,1,3,3,3-Hexafluoropropan-2-yl 4-(7-isopropyl-5,6,7,8-tetrahydro-[1,2,4]triazolo[4,3-a]pyrazine-3-carboxamido)-4-methylpiperidine-1-carboxylate], the inhibition at 1 µM in experiment [1], in experiment [2] (setting [3]) and in experiment [2] (setting [4]) was > 75% throughout. Moreover, the IC50 in experiment [2] (setting [5]) was < 100 nM.

In the case of `O=C(OC(C(F)(F)F)C(F)(F)F)N1CCC2(CCCN2Cc2ccc3cccc(Cl)c3n2)CC1` [Example 57, 1,1,1,3,3,3-Hexafluoropropan-2-yl 1-((8-chloroquinolin-2-yl)methyl)-1,8-diazaspiro[4.5] decane-8-carboxylate], in experiment [1], the inhibition at 1 µM was > 75% and the IC50 is < 100 nM. In experiment [2] (setting [5]), the IC50 was < 100 nM.

Take `O=C(OC(C(F)(F)F)C(F)(F)F)N1CCC2(CCCN2C(=O)c2cncnc2)CC1` [Example 68, 1,1,1,3,3,3-Hexafluoropropan-2-yl 1-(pyrimidine-5-carbonyl)-1,8-diazaspiro[4.5] decane-8-carboxylate]: the inhibition at 1 µM was < 25% in experiment [1] and 25 to 75% in experiment [2] (setting [4]).

As to `O=C(OC(C(F)(F)F)C(F)(F)F)N1CCC2(CCCN2C(=O)c2cn3ccccc3n2)CC1` [Example 69, 1,1,1,3,3,3-Hexafluoropropan-2-yl 1-(imidazo[1,2-a]pyridine-2-carbonyl)-1,8-diazaspiro[4.5] decane-8-carboxylate], in experiment [1], the inhibition at 1 µM was > 75% and the IC50 was < 100 nM. Besides, in experiment [2] (setting [5]), the IC50 is < 100 nM.

For `CC(C)n1cc(C(=O)N2CCCC23CCN(C(=O)OC(C(F)(F)F)C(F)(F)F)CC3)cn1` [Example 71, 1,1,1,3,3,3-Hexafluoropropan-2-yl 1-(1-isopropyl-1H-pyrazole-4-carbonyl)-1,8-diazaspiro[4.5] decane-8-carboxylate], in experiment [1], the inhibition at 1 µM was > 75% and the IC50 was < 100 nM. The IC50 in experiment [2] (setting [5]) is < 100 nM.

`O=C(OC(C(F)(F)F)C(F)(F)F)N1CCC2(CCCN2C(=O)c2cc3c(s2)CCNC3)CC1` [Example 152, 1,1,1,3,3,3-Hexafluoropropan-2-yl 1-(4,5,6,7-tetrahydrothieno[3,2-c]pyridine-2-carbonyl)-1,8-diazaspiro[4.5] decane-8-carboxylate]: the IC50 in experiment [2] (setting [5]) was < 100 nM.

With `O=C(OC(C(F)(F)F)C(F)(F)F)N1CCC2(CCCN2C(=O)c2nc3n(n2)CCCN3)CC1` [Example 153, 1,1,1,3,3,3-Hexafluoropropan-2-yl 1-(4,5,6,7-tetrahydro-[1,2,4]triazolo[1,5-a]pyrimidine-2-carbonyl)-1,8-diazaspiro[4.5]decane-8-carboxylate], the IC50 in experiment [2] (setting [5]) was < 100 nM.

Consider `CC1(NC(=O)c2cn3c(n2)CN(C2CCC2)CC3)CCN(C(=O)OC(C(F)(F)F)C(F)(F)F)CC1` [Example 183, 1,1,1,3,3,3-Hexafluoropropan-2-yl 4-(7-cyclobutyl-5,6,7,8-tetrahydroimidazo[1,2-a]pyrazine-2-carboxamido)-4-methylpiperidine-1-carboxylate], for which the inhibition at 1 µM in experiment [2] (setting [3]) and in experiment [2] (setting [4]) was > 75% in each case. For the same compound, the IC50 in experiment [2] (setting [5]) was < 100 nM.

With `O=C(OC(C(F)(F)F)C(F)(F)F)N1CCC2(CCCN2C(=O)C(F)(F)c2cnccn2)CC1` [Example 197, 1,1,1,3,3,3-Hexafluoropropan-2-yl 1-(2,2-difluoro-2-(pyrazin-2-yl)acetyl)-1,8-diazaspiro[4.5] decane-8-carboxylate], the inhibition at 1 µM in experiment [2] (setting [3]) and in experiment [2] (setting [4]) was > 75% each time.

In general, inhibition refers to how much of the control response was suppressed. What is called IC50 is the concentration that gives 50% inhibition.
